Measured values as given in patent publication US12263248B2, “Compounds and compositions for intracellular delivery of therapeutic agents” (ModernaTX, Inc., priority 2018, dated 2025).

Assays:
IL-6, MCP-1 = assay: Cytokine induction in non-human primates; format: in vivo, Cynomolgus monkeys
Procedure: The tolerability and efficacy of nanoparticle compositions to non-human primates was also investigated using a sample formulation including Compound 18. The formulation was prepared according to the standard MC3 formulation described above and included an hEPO mRNA. Primates were administered a single dose of 0.05 (Group 1), 0.3 (Group 2), or 1.0 (Group 3) mpk via intravenous infusion for 60 minutes. Three primates were administered each dose. Expression of hEPO was measured prior to dosing and at 2, 6, 24, 48, and 96 hours post-treatment (Table 26). Table 28 includes levels of indicators of complement activation, while Table 29 includes cytokine induction data.
hEPO ELISA for NHP samples: Human Epo levels were measured using a human erythropoietin immunoassay. Cytokines levels were measured using a non-human primate cytokine kit.

[1] = Tissue distribution and liver tissue clearance of lipid after weekly intravenous doses to CD-1 mice; format: in vivo; conditions: liver tissue, 0.25 mg/kg mRNA, weekly dosing
Description: FIGS. 30A-30C are a series of graphs showing the pharmacokinetic and expression profile of Compound 18 after multiple doses. FIG. […]
FIGS. 35A and 35B are a pair of graphs comparing the tissue distribution of MC3 and compound 18.

[2] = One month toxicology evaluation in non-human primate: serum ALT and AST; format: in vivo; conditions: cynomolgus monkeys, 1 mg/kg mRNA, intravenously by 60 min infusion, dosed weekly, 24 post fifth dose; PBS pre-dose vs day 30 levels
Procedure: FIGS. 32A-32C are a series of graphs summarizing the results of a one month toxicology evaluation in rat and non-human primate. PBS (phosphate buffered saline) was used as a control. […] The serum levels were measured 24 post fifth dose (n=4). […] The serum levels were measured 24 post fifth dose (n=4).

hEPO mRNA = assay: Pretreatment study in Cynomolgus monkeys (standard MC3 formulation, hEPO mRNA); format: in vivo; conditions: once weekly for four weeks, absence of any pretreatment
Procedure: The effects of pretreatment to non-human primates were evaluated using a standard MC3 formulation including an mRNA encoding hEPO. Male monkeys were administered the nanoparticle composition once weekly for four weeks at a dose rate of 5 ml/kg/h and were pretreated with either methotrexate or dexamethasone.
As shown, in the absence of any pretreatment, maximal expression levels decreased nearly 70% over the course of the study.

[3] = rat, MC3-based mRNA containing LNP, 0.3 mg/kg dose mRNA; cited from earlier work

## CCCCCCCCCOC(=O)CCCCCCCN(CCO)CCCCCCCC(=O)OC(CCCCCCCC)CCCCCCCC [Compound 18, Heptadecan-9-yl 8-((2-hydroxyethyl)(8-(nonyloxy)-8-oxooctyl)amino)octanoate]
IL-6, MCP-1; 0.05 mpk, 2 h
  IFNg: 18.8 pg/mL
  IFNα: 18.8 pg/mL
  IL-1b: 18.8 pg/mL
  IL-6: 18.8 pg/mL
  MCP-1: 342 pg/mL
  TNF-α: 18.8 pg/mL
IL-6, MCP-1; 0.05 mpk, 6 h
  IFNg: 18.8 pg/mL
  IFNα: 18.8 pg/mL
  IL-1b: 18.8 pg/mL
  IL-6: 18.8 pg/mL
  MCP-1: 543 pg/mL
  TNF-α: 41.5 pg/mL
IL-6, MCP-1; 0.05 mpk, 24 h
  IFNg: 18.8 pg/mL
  IFNα: 18.8 pg/mL
  IL-1b: 18.8 pg/mL
  IL-6: 18.8 pg/mL
  MCP-1: 236 pg/mL
  TNF-α: 17.6 pg/mL
IL-6, MCP-1; 0.05 mpk, Day 5
  IFNg: 39.3 pg/mL
  IFNα: 18.8 pg/mL
  IL-1b: 18.8 pg/mL
  IL-6: 18.8 pg/mL
  MCP-1: 232 pg/mL
  TNF-α: 63.5 pg/mL
IL-6, MCP-1; 0.05 mpk, Predose
  IFNg: 18.8 pg/mL
  IFNα: 18.8 pg/mL
  IL-1b: 18.8 pg/mL
  IL-6: 18.8 pg/mL
  MCP-1: 192 pg/mL
  TNF-α: 18.8 pg/mL
IL-6, MCP-1; 0.3 mpk, 2 h
  IFNg: 18.8 pg/mL
  IFNα: 18.8 pg/mL
  IL-1b: 18.8 pg/mL
  IL-6: 191 pg/mL
  MCP-1: 3018 pg/mL
  TNF-α: 38.2 pg/mL
IL-6, MCP-1; 0.3 mpk, 6 h
  IFNg: 18.8 pg/mL
  IFNα: 18.8 pg/mL
  IL-1b: 18.8 pg/mL
  IL-6: 33.0 pg/mL
  MCP-1: 2011 pg/mL
  TNF-α: 32.5 pg/mL
IL-6, MCP-1; 0.3 mpk, 24 h
  IFNg: 18.8 pg/mL
  IFNα: 18.8 pg/mL
  IL-1b: 18.8 pg/mL
  IL-6: 18.8 pg/mL
  MCP-1: 404 pg/mL
  TNF-α: 59.6 pg/mL
IL-6, MCP-1; 0.3 mpk, Day 5
  IFNg: 18.8 pg/mL
  IFNα: 18.8 pg/mL
  IL-1b: 18.8 pg/mL
  IL-6: 18.8 pg/mL
  MCP-1: 211 pg/mL
  TNF-α: 18.8 pg/mL
IL-6, MCP-1; 0.3 mpk, Predose
  IFNg: 18.8 pg/mL
  IFNα: 18.8 pg/mL
  IL-1b: 18.8 pg/mL
  IL-6: 18.8 pg/mL
  MCP-1: 168 pg/mL
  TNF-α: 18.8 pg/mL
IL-6, MCP-1; 1.0 mpk, 2 h
  IFNg: 35.8 pg/mL
  IFNα: 18.8 pg/mL
  IL-1b: 33.4 pg/mL
  IL-6: 834 pg/mL
  MCP-1: 4221 pg/mL
  TNF-α: 18.8 pg/mL
IL-6, MCP-1; 1.0 mpk, 6 h
  IFNg: 38.9 pg/mL
  IFNα: 18.8 pg/mL
  IL-1b: 18.8 pg/mL
  IL-6: 398 pg/mL
  MCP-1: 3945 pg/mL
  TNF-α: 18.8 pg/mL
IL-6, MCP-1; 1.0 mpk, 24 h
  IFNg: 18.8 pg/mL
  IFNα: 18.8 pg/mL
  IL-1b: 18.8 pg/mL
  IL-6: 31.4 pg/mL
  MCP-1: 1444 pg/mL
  TNF-α: 46.2 pg/mL
IL-6, MCP-1; 1.0 mpk, Day 5
  IFNg: 18.8 pg/mL
  IFNα: 18.8 pg/mL
  IL-1b: 18.8 pg/mL
  IL-6: 18.8 pg/mL
  MCP-1: 225 pg/mL
  TNF-α: 41.9 pg/mL
IL-6, MCP-1; 1.0 mpk, Predose
  IFNg: 18.8 pg/mL
  IFNα: 18.8 pg/mL
  IL-1b: 18.8 pg/mL
  IL-6: 18.8 pg/mL
  MCP-1: 235 pg/mL
  TNF-α: 18.8 pg/mL
[1]
  primary metabolite: compound 166
[2]
  serum alanine aminotransferase levels: No statistical difference
  serum aspartate aminotransferase levels: No statistical difference

## CCCCC/C=C\C/C=C\CCCCCCCCC(CCCCCCCC/C=C\C/C=C\CCCCC)OC(=O)CCCN(C)C [MC3, DLin-MC3-DMA, reference compound]
hEPO mRNA
  decrease of maximal expression levels over the course of the study: ~70%
[3]
  ALT, AST and pathology: ALT and AST were elevated and pathology showed evidence of necrosis
